This series is classed as in vivo, male Sprague-Dawley rats. The note with it: rats, saline solution, 50 mg/kg.

The values below come from article PMC4224687 (Journal of Controlled Release, 2014).

The structures appear in SMILES notation.

For `CO[C@H]1O[C@H](COS(=O)(=O)O)[C@@H](O[C@@H]2O[C@@H](C(=O)O)[C@@H](O[C@H]3O[C@H](COS(=O)(=O)O)[C@@H](O[C@@H]4O[C@H](C(=O)O)[C@@H](O[C@H]5O[C@H](COS(=O)(=O)O)[C@@H](O)[C@H](O)[C@H]5NS(=O)(=O)O)[C@H](O)[C@H]4O)[C@H](OS(=O)(=O)O)[C@H]3NS(=O)(=O)O)[C@H](O)[C@H]2OS(=O)(=O)O)[C@H](O)[C@H]1NS(=O)(=O)O` [Fpx, Fondaparinux], the “oral absorption” value was “not absorbed”.
